Consider eight compounds from ChEMBL document CHEMBL1201862, “PubChem BioAssay data set” (2004).

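Growth conditions: 96-well plates. Treatment: test compound, 48 hours, 5 concentrations. Analysis: linear interpolation between bracketing concentrations; unreached endpoints set to highest concentration. GI50 is the concentration that inhibits growth by half.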 Activity calls are given as the source filed them. No stated cut-off is given here; in the data, active = GI50 up to about 1.1 µM and inactive = higher.

Test systems include HL-60; MCF7; NCI-H23; A498; HT-29; SF-268; BT-549; KM12; HCT-15; DU-145; SK-OV-3; OVCAR-3; Hs-578T; OVCAR-8; OVCAR-4; K562; MDA-MB-435; IGROV-1; ACHN; MDA-MB-231.
Test in all cases: NCI-60 cell line screen, 48 h

For `O=C(Cc1ccc(O)c(O)c1)NCc1c[nH]c2ccccc12`, the GI50 in the experiment on HL-60 is 27 µM (inactive); in the experiment on MCF7, 42 µM (inactive); with NCI-H23, 39.1 µM (inactive); in the experiment on A498, > 100 µM (inactive); in the experiment with HT-29 it was > 100 µM (inactive); in the experiment with SF-268 it was 37.8 µM (inactive). In addition, the GI50 is 43.9 µM (inactive) in the experiment on BT-549; 71.4 µM (inactive) with KM12; 61.1 µM in the experiment on HCT-15; 29.1 µM (inactive) in the experiment with DU-145; > 100 µM (inactive) in the experiment with SK-OV-3; 42.3 µM (inactive) with OVCAR-3. In addition, the GI50 with Hs-578T is > 100 µM (inactive); in the experiment on OVCAR-8, 71.6 µM (inactive); in the experiment with OVCAR-4, 37 µM (inactive); in the experiment with K562 it was 38.5 µM (inactive).
Regarding `O=C(Nc1c(Cl)cccc1Cl)c1c(Cl)c(Cl)c(Cl)c(Cl)c1-c1nc2ccccc2[nH]1`, the GI50 with HL-60 is > 100 µM (inactive); with MCF7 it was 34.6 µM (inactive); in the experiment with NCI-H23, 76.7 µM (inactive); in the experiment with MDA-MB-435, 38.2 µM (inactive); with A498, 11.4 µM (inactive); with HT-29 it was 26 µM (inactive). Besides, the GI50 in the experiment with SF-268 is 63.7 µM (inactive); in the experiment on BT-549, 56.9 µM (inactive); in the experiment with KM12, 0.155 µM (active); in the experiment on IGROV-1, 14.2 µM (inactive); in the experiment with HCT-15, 98.9 µM; in the experiment with DU-145, 62.2 µM (inactive). Also, the GI50 with SK-OV-3 is 0.0507 µM (active); in the experiment on OVCAR-3, 25.4 µM (inactive); with ACHN it was 50.1 µM (inactive); with Hs-578T it was 61.8 µM (inactive); in the experiment on OVCAR-8, 33 µM (inactive); with OVCAR-4 it was 43.6 µM (inactive). For the same compound, in the experiment on K562, the GI50 was 59.3 µM (inactive).
Turning to `COc1ccc(NC(C)=O)cc1N1C(=O)/C(=C\c2cccc(Oc3ccccc3)c2)SC1c1ccccc1` (centres undefined), the GI50 is 16.9 µM (inactive) with HL-60; 23.8 µM (inactive) in the experiment with MCF7; 46 µM (inactive) in the experiment on NCI-H23; 23.3 µM (inactive) in the experiment on MDA-MB-435; 56.4 µM (inactive) in the experiment with A498; 18.3 µM (inactive) in the experiment with HT-29. In addition, the GI50 in the experiment with BT-549 is 30.5 µM (inactive); in the experiment with KM12, 37.6 µM (inactive); in the experiment on IGROV-1 it was 27.4 µM (inactive); in the experiment with HCT-15, 33.1 µM; with DU-145 it was 35.3 µM (inactive); in the experiment with SK-OV-3, 49 µM (inactive). For the same compound, the GI50 with OVCAR-3 was 21.8 µM (inactive); in the experiment on ACHN it was 31.3 µM (inactive); in the experiment with OVCAR-8 it was 22.5 µM (inactive); in the experiment on OVCAR-4, 14.2 µM (inactive); with K562, 19.8 µM (inactive); with MDA-MB-231, 37.8 µM (inactive).
In the case of `O=C(Nc1cc2c(=O)oc3ccccc3c2oc1=O)c1cccnc1`, the GI50 in the experiment on HL-60 was 48 µM (inactive); in the experiment with MCF7 it was > 100 µM (inactive); in the experiment with NCI-H23 it was > 100 µM (inactive); in the experiment on MDA-MB-435, > 100 µM (inactive); in the experiment with HT-29, > 100 µM (inactive); in the experiment with BT-549, > 100 µM (inactive). For the same compound, the GI50 with KM12 was > 100 µM (inactive); with IGROV-1, > 100 µM (inactive); in the experiment with HCT-15, above 100 µM; in the experiment on DU-145, > 100 µM (inactive); in the experiment on SK-OV-3 it was > 100 µM (inactive); in the experiment on OVCAR-3, > 100 µM (inactive). The GI50 in the experiment on ACHN is 50 µM (inactive); with OVCAR-8 it was 45 µM (inactive); with OVCAR-4 it was > 100 µM (inactive); with K562, > 100 µM (inactive); in the experiment with MDA-MB-231, > 100 µM (inactive).
For `Cc1cc(C)c(C#N)c(SC(=S)NC(=O)c2ccc(Cl)cc2)n1`, the GI50 in the experiment with MCF7, with NCI-H23, with MDA-MB-435, in the experiment on A498, in the experiment on SF-268 and in the experiment with BT-549 was > 100 µM (inactive) throughout. For the same compound, the GI50 in the experiment with KM12 is > 100 µM (inactive); with HCT-15, above 100 µM; in the experiment with DU-145, > 100 µM (inactive); with SK-OV-3, > 100 µM (inactive); in the experiment on OVCAR-3, > 100 µM (inactive); in the experiment on ACHN, > 100 µM (inactive). For the same compound, the GI50 in the experiment on OVCAR-8, with OVCAR-4 and with MDA-MB-231 was > 100 µM (inactive) in each case.
In the case of `CC(CO)(CBr)COC(=O)c1cc(Br)c(N)c(Br)c1` (centres undefined), the GI50 was > 100 µM (inactive) in the experiment with HL-60; 79.3 µM (inactive) with NCI-H23; 98.9 µM (inactive) in the experiment on MDA-MB-435; 62.2 µM (inactive) in the experiment on A498; > 100 µM (inactive) with HT-29; 29.3 µM (inactive) with SF-268. Besides, the GI50 in the experiment with BT-549 is 76.2 µM (inactive); in the experiment on KM12, > 100 µM (inactive); in the experiment with IGROV-1, 33.9 µM (inactive); in the experiment on HCT-15, above 100 µM; in the experiment on DU-145 it was 48.8 µM (inactive); with SK-OV-3 it was 83.9 µM (inactive). Besides, the GI50 with OVCAR-3 was > 100 µM (inactive); in the experiment with ACHN, 73.8 µM (inactive); in the experiment on OVCAR-8 it was > 100 µM (inactive); in the experiment with OVCAR-4, > 100 µM (inactive); with K562, > 100 µM (inactive); in the experiment with MDA-MB-231 it was 37.1 µM (inactive).
With `CNc1nnc(CCCCCCCCc2nnc(NC)o2)o1`, the GI50 was 32.4 µM (inactive) in the experiment on HL-60; 20.7 µM (inactive) in the experiment on MCF7; > 100 µM (inactive) in the experiment with NCI-H23; 63.8 µM (inactive) with MDA-MB-435; > 100 µM (inactive) in the experiment on A498; 29.9 µM (inactive) in the experiment on HT-29. Further, the GI50 with BT-549 is > 100 µM (inactive); in the experiment on KM12 it was > 100 µM (inactive); in the experiment with IGROV-1 it was > 100 µM (inactive); in the experiment on HCT-15 it was 27.8 µM; with DU-145, > 100 µM (inactive); in the experiment with SK-OV-3, > 100 µM (inactive). Also, the GI50 in the experiment with OVCAR-3 is 25.9 µM (inactive); in the experiment with ACHN, > 100 µM (inactive); in the experiment on OVCAR-8 it was 34.8 µM (inactive); with OVCAR-4, > 100 µM (inactive); with K562, 31.9 µM (inactive); in the experiment on MDA-MB-231, > 100 µM (inactive).
Regarding `Nn1nnc2ccccc21`, the GI50 in the experiment on HL-60, with MCF7, with NCI-H23, in the experiment with MDA-MB-435, with A498 and with HT-29 was > 100 µM (inactive) each time. The GI50 was > 100 µM (inactive) with SF-268; > 100 µM (inactive) in the experiment with BT-549; > 100 µM (inactive) in the experiment with IGROV-1; above 100 µM with HCT-15; > 100 µM (inactive) in the experiment with DU-145; > 100 µM (inactive) in the experiment with SK-OV-3. For the same compound, the GI50 with OVCAR-3, with ACHN, in the experiment on OVCAR-8, in the experiment on OVCAR-4, with K562 and with MDA-MB-231 was > 100 µM (inactive) each time.
